Assay results taken from patent US20230159469A1, “NOVEL PHTHALAZINE DERIVATIVE HAVING ECTONUCLOEOTIDE PYROPHOSPHATASE/PHOSPHODIESTE RASE INHIBITORY ACTIVITY, AND USE THEREOF” (TXINNO BIOSCIENCE INC., priority 2020, published 2023).
Structures can show the parent of a compound that is named as a salt.

Biological target: T1, human recombinant ENPP1 (Homo sapiens, UniProt P22413)
T1 construct: purchased R & D systems
T1 sequence (P22413 1-925): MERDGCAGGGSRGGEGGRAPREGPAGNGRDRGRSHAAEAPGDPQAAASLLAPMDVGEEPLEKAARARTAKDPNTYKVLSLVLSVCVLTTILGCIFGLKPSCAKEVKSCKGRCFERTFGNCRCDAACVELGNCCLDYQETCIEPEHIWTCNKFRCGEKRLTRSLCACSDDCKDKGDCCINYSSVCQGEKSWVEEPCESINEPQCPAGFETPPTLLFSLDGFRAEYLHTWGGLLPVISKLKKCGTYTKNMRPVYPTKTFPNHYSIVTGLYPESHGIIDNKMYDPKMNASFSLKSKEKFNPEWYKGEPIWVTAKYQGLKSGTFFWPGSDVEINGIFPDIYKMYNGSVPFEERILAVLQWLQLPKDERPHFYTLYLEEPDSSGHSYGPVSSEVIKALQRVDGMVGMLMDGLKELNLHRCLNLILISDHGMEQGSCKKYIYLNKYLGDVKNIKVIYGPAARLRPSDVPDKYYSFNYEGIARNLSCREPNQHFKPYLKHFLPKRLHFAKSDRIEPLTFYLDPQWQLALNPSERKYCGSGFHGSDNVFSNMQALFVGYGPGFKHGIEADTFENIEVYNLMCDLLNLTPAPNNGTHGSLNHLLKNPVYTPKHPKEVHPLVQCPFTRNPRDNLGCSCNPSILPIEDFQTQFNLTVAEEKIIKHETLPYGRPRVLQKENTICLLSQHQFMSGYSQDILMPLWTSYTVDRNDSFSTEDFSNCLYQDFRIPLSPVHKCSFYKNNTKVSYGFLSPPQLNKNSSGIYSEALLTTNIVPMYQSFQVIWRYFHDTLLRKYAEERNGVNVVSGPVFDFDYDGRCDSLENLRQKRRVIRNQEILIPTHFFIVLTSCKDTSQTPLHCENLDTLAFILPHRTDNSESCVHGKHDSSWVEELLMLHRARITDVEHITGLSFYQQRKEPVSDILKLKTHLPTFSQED
Test: ENPP1 enzyme assay with cGAMP substrate (AMP-Glo luminescence)
Type: biochemical
Conditions: human recombinant ENPP1 3 ng/reaction, cGAMP 5 μM, 37° C. 90 minutes, read-out: Enzymatic activity (ENPP1 IC50)
In short: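 Human ENPP1 hydrolysis of 5 μM cGAMP was run for 90 min at 37° C in 50 mM Tris pH 8.5, 250 mM NaCl, 0.5 mM CaCl2, 1 μM ZnCl2, 5% glycerol, 1% DMSO. AMP product was quantified by AMP-Glo luminescence; IC50 came from 3-parameter fits of % residual activity, averaged over at least two runs.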

In the case of `COc1cc2c(-c3ccc(CNS(N)(=O)=O)c(C(F)(F)F)c3)n[nH]c(=O)c2cc1OC` [Compound No. 119, hydrochloride], the IC50 is reported as 1 to 10 µM.
`COc1cc2c(-c3ccc(CN(C)S(N)(=O)=O)c(C(F)(F)F)c3)n[nH]c(=O)c2cc1OC` [Compound No. 120, hydrochloride] was tested, and the IC50 was > 10 µM.
For `NS(=O)(=O)N1CCc2ccc(-c3n[nH]c(=O)c4ccccc34)cc2C1` [Compound No. 121, 7-(4-oxo-3,4-dihydrophthalazin-1-yl)-3,4-dihydroisoquinoline-2(1H) sulfamide hydrochloride], the IC50 was < 1 µM.
With `COc1cc2c(-c3ccc4c(c3)CN(S(N)(=O)=O)CC4)n[nH]c(=O)c2cc1OC` [Compound No. 122, 7-(6,7-dimethoxy-4-oxo-3,4-dihydrophthalazin-1-yl)-3,4-dihydroisoquinoline-2(1H)-sulfamide] the IC50 was < 1 µM.
For `CC(NS(N)(=O)=O)c1ccc(-c2n[nH]c(=O)c3ccccc23)cc1` (stereo not drawn) [Compound No. 123, N-(1-(4-(4-oxo-3,4-dihydrophthalazin-1-yl)phenyl)ethyl)sulfamide hydrochloride], the IC50 was < 1 µM.
In the case of `C[C@@H](NS(N)(=O)=O)c1ccc(-c2n[nH]c(=O)c3ccccc23)cc1` [Compound No. 124, (R)-N-(1-(4-(4-oxo-3,4-dihydrophthalazin-1-yl)phenyl)ethyl)sulfamide hydrochloride], the IC50 is reported as < 1 µM.
For `CC(C)(NS(N)(=O)=O)c1ccc(-c2n[nH]c(=O)c3ccccc23)cc1` [Compound No. 125, N-(2-(4-(4-oxo-3,4-dihydrophthalazin-1-yl)phenyl)propan-2-yl)sulfamide hydrochloride], the IC50 was 1 to 10 µM.
For `NS(=O)(=O)NCc1ccc(-c2n[nH]c(=O)c3ccccc23)cc1C(F)(F)F` [Compound No. 126, N-(4-(4-oxo-3,4-dihydrophthalazin-1-yl)-2-(trifluoromethyl)benzyl)sulfamide hydrochloride], the IC50 was < 1 µM.
With `CN(Cc1ccc(-c2n[nH]c(=O)c3ccccc23)cc1)S(N)(=O)=O` [Compound No. 127, N-methyl-N-(4-(4-oxo-3,4-dihydrophthalazin-1-yl)benzyl)sulfamide] the IC50 was < 1 µM.
Work on `NS(=O)(=O)N1CCc2cc(-c3n[nH]c(=O)c4ccccc34)ccc2C1` [Compound No. 128, 6-(4-oxo-3,4-dihydrophthalazin-1-yl-3,4-dihydroisoquinoline-2(1H)-sulfonamide hydrochloride] yielded an IC50 of 1 to 10 µM.
In the case of `Cn1nc(-c2ccc3c(c2)CCN(S(N)(=O)=O)C3)c2ccccc2c1=O` [Compound No. 129, 6-(3-methyl-4-oxo-3,4-dihydrophthalazin-1-yl)-3,4-dihydroisoquinoline-2(1H)-sulfonamide hydrochloride], the IC50 is reported as 1 to 10 µM.
Work on `COc1cc2c(-c3ccc4c(c3)CCN(S(N)(=O)=O)C4)n[nH]c(=O)c2cc1OC` [Compound No. 130, 6-(6,7-dimethoxy-4-oxo-3,4-dihydrophthalazin-1-yl)-3,4-dihydroisoquinoline-2(1H)-sulfonamide hydrochloride] yielded an IC50 of 1 to 10 µM.
With `COc1cc2c(-c3ccc4c(c3)CCN(S(N)(=O)=O)C4)nn(C)c(=O)c2cc1OC` [Compound No. 131, 6-(6,7-dimethoxy-3-methyl-4-oxo-3,4-dihydrophthalazin-1-yl)-3,4-dihydroisoquinoline-2(1H)-sulfonamide hydrochloride] the IC50 was 1 to 10 µM.
With `CC(C)(C)OC(=O)NCC1CCN(c2n[nH]c(=O)c3ccccc23)CC1` [Compound No. 132, tert-butyl ((1-(4-oxo-3,4-dihydrophthalazin-1-yl)piperidin-4-yl)methyl)carbamate] the IC50 was > 10 µM.
For `COc1cc2c(N3CCC(CNC(=O)OC(C)(C)C)CC3)n[nH]c(=O)c2cc1OC` [Compound No. 133, tert-butyl ((1-(6,7-dimethoxy-4-oxo-3,4-dihydrophthalazin-1-yl)piperidin-4-yl)methyl)carbamate], the IC50 was > 10 µM.
Work on `NCC1CCN(c2n[nH]c(=O)c3ccccc23)CC1` [Compound No. 134, 4-(4-(aminomethyl)piperidin-1-yl)phthalazin-1(2H)-one hydrochloride] yielded an IC50 of 1 to 10 µM.
In the case of `COc1cc2c(N3CCC(CN)CC3)n[nH]c(=O)c2cc1OC` [Compound No. 135, 4-(4-(aminomethyl)piperidin-1-yl)-6,7-dimethoxyphthalazin-1(2H)-one hydrochloride], the IC50 is reported as > 10 µM.
For `CC(C)(C)OC(=O)NS(=O)(=O)NCC1CCN(c2n[nH]c(=O)c3ccccc23)CC1` [Compound No. 136, tert-butyl N-((1-(4-oxo-3,4-dihydrophthalazin-1-yl)piperidin-4-yl)methyl)sulfamoyl carbamate], the IC50 was > 10 µM.
In the case of `COc1cc2c(N3CCC(CNS(=O)(=O)NC(=O)OC(C)(C)C)CC3)n[nH]c(=O)c2cc1OC` [Compound No. 137, tert-butyl N-((1-(6,7-dimethoxy-4-oxo-3,4-dihydrophthalazin-1-yl)piperidin-4-yl)methyl)sulfamoyl carbamate], the IC50 is reported as > 10 µM.
`NS(=O)(=O)NCC1CCN(c2n[nH]c(=O)c3ccccc23)CC1` [Compound No. 138, N-((1-(4-oxo-3,4-dihydrophthalazin-1-yl)piperidin-4-yl)methyl)sulfamide hydrochloride] was tested, and the IC50 was < 1 µM.
With `COc1cc2c(N3CCC(CNS(N)(=O)=O)CC3)n[nH]c(=O)c2cc1OC` [Compound No. 139, N-((1-(6,7-dimethoxy-4-oxo-3,4-dihydrophthalazin-1-yl)piperidin-4-yl)methyl)sulfamide hydrochloride] the IC50 was < 1 µM.
In the case of `COc1cc2c(Nc3ccc(NS(N)(=O)=O)cc3)nn(C)c(=O)c2cc1OC` [Compound No. 140, N-(4-(6,7-dimethoxy-3-methyl-4-oxo-3,4-dihydrophthalazin-1-yl)-amino)phenyl)sulfamide hydrochloride], the IC50 is reported as > 10 µM.
Compound `COc1cc2c(Nc3cccc(NS(N)(=O)=O)c3)nn(C)c(=O)c2cc1OC` [Compound No. 141, N-(3-(6,7-dimethoxy-3-methyl-4-oxo-3,4-dihydrophthalazin-1-yl)-amino)phenyl)sulfamide hydrochloride] has an IC50 of 1 to 10 µM.
With `NS(=O)(=O)NCCC1CCN(c2n[nH]c(=O)c3ccccc23)CC1` [Compound No. 142, N-(2-(1-(4-oxo-3,4-dihydrophthalazin-1-yl)piperidin-4-yl)ethyl)sulfamide trifluoroacetic acid] the IC50 was > 10 µM.
In the case of `O=c1[nH]nc(Cc2ccccc2)c2ccccc12` [Compound No. 143, 4-benzylphthalazin-1(2H)-one], the IC50 is reported as > 10 µM.
`COc1cc2c(Cc3ccccc3)n[nH]c(=O)c2cc1OC` [Compound No. 144, 4-benzyl-6,7-dimethoxyphthalazin-1(2H)-one] was tested, and the IC50 was > 10 µM.
For `COc1cc2c(Cc3cccc(NC(=O)OC(C)(C)C)c3)n[nH]c(=O)c2cc1OC` [Compound No. 145, tert-butyl (3-((6,7-dimethoxy-4-oxo-3,4-dihydrophthalazin-1-yl)methyl)phenyl)carbamate], the IC50 was > 10 µM.
With `COc1cc2c(Cc3cccc(NC(=O)OC(C)(C)C)c3)nn(C)c(=O)c2cc1OC` [Compound No. 146, tert-butyl (3-((6,7-dimethoxy-3-methyl-4-oxo-3,4-dihydrophthalazin-1-yl)methyl)phenyl)carbamate] the IC50 was > 10 µM.
For `CC(C)(C)OC(=O)Nc1ccc(Cc2n[nH]c(=O)c3ccccc23)cc1` [Compound No. 147, tert-butyl (4-((4-oxo-3,4-dihydrophthalazin-1-yl)methyl)phenyl)carbamate], the IC50 was > 10 µM.
With `Cn1nc(Cc2ccc(NC(=O)OC(C)(C)C)cc2)c2ccccc2c1=O` [Compound No. 148, tert-butyl (4-((3-methyl-4-oxo-3,4-dihydrophthalazin-1-yl)methyl)phenyl)carbamate] the IC50 was > 10 µM.
For `COc1cc2c(Cc3ccc(NC(=O)OC(C)(C)C)cc3)n[nH]c(=O)c2cc1OC` [Compound No. 149, tert-butyl (4-((6,7-dimethoxy-4-oxo-3,4-dihydrophthalazin-1-yl)methyl)phenyl)carbamate], the IC50 was > 10 µM.
`COc1cc2c(Cc3ccc(NC(=O)OC(C)(C)C)cc3)nn(C)c(=O)c2cc1OC` [Compound No. 150, tert-butyl (4-((6,7-dimethoxy-3-methyl-4-oxo-3,4-dihydrophthalazin-1-yl)methyl)phenyl)carbamate] was tested, and the IC50 was > 10 µM.
In the case of `CN(C(=O)OC(C)(C)C)c1ccc(Cc2n[nH]c(=O)c3ccccc23)cc1` [Compound No. 151, tert-butyl (4-((4-oxo-3,4-dihydrophthalazin-1-yl)methyl)phenyl) (methyl)carbamate], the IC50 is reported as > 10 µM.
